{
  "source": "patent US6194408A",
  "about": "“Triazineone compounds for treating diseases due to Sarcocystis, Neospora and Toxoplasma” (Bayer Corporation, priority 1998, dated 2001)",
  "key": {"[1]": {"system": "Neospora caninum NC-1", "assay": "Microtiter Monolayer Disruption Assay (MMDA), inhibition of BT cell destruction by N. caninum", "type": "cell-based", "conditions": "1.0 μg/mL, read-out: Percent Inhibition of Cell Destruction", "method": "(§1) In order to determine the scope of protection provided by Ponazuril, in vitro testing was conducted. The following strains of parasites were evaluated for their sensitivity to this compound: Strain SN3 of Sarcocystis neurona; strain SF1 of Sarcocystis falcatula; strain RH of Toxoplasma gondii; and the NC-1 strain of Neospora caninum. Ponazuril was tested at concentrations (1 μg/mL and 10 μg/mL).\n(§2) Bovine turbinate (BT) cells were used for all in vitro studies. Cells were grown to confluency in 25 cm^2 flasks in RMPI 1640 media supplemented with 10% v/v fetal bovine serum (FBS), 100 Units penicillin (G/mL), […] and 5×10^-2 mM 2-mercpatoethanol. After cell confluence was obtained, cells were maintained in the same media with reduced FBS (2% v/v). Cell cultures were incubated at 37° C. in a humidified atmosphere containing 5% carbon dioxide and 95% air. […]\n(§3) The assay used to determine the effectiveness of Ponazuril was the Microtiter Monolayer Disruption Assay (MMDA). […] Flat bottomed 96-well microtiter plates were inoculated with BT cells and the resulting monolayers were used to determine the effects of Toltrazuril and Ponazuril on merozoite production as measured by CPE (plaque formation). […]"}, "[2]": {"system": "Sarcocystis falcatula", "assay": "Microtiter Monolayer Disruption Assay (MMDA), inhibition of BT cell destruction by S. falcatula", "type": "cell-based", "conditions": "1 μg/mL, read-out: Percent Inhibition of Cell Destruction", "method": "as §1, §2, §3"}, "[3]": {"assay": "Cerebral spinal fluid drug levels / passage of blood-brain barrier after repeated doses of Toltrazuril in horses", "type": "in vivo", "conditions": "horses", "method": "This experiment was conducted in order to determine whether triazineones such as Toltrazuril can pass the blood-brain barrier. Normal horses were divided into three groups of three horses per group. Group 1 horses received Toltrazuril administered orally as a 5% suspension at a dose level of 2.5 mg/Kg. Group 2 horses received Toltrazuril administered orally as a 5% suspension at a dose level of 5.0 mg/Kg. Group 3 horses received Toltrazuril administered orally as a 5% suspension at a dose level of 7.5 mg/Kg. The dosing was repeated daily for 10 days. Blood samples were drawn at 48, 96 and 240 hours and the concentration of Toltrazuril, Toltrazuril sulfoxide and Ponazuril in the serum was measured. Ten days after the start of the treatment (Day 10), a sample of cerebral spinal fluid was removed from each horse and the concentrations of Toltrazuril, Toltrazuril Sulfoxide and Ponazuril were again measured in these samples. The concentrations of Toltrazuril, Toltrazuril Sulfoxide and Ponazuril in the serum and cerebral spinal fluid are reported in TABLES 5a and 5b."}, "[4]": {"system": "Toxoplasma gondii", "assay": "Microtiter Monolayer Disruption Assay (MMDA), inhibition of BT cell destruction by T. gondii", "type": "cell-based", "conditions": "1.0 μg/mL, read-out: Percent Inhibition of Cell Destruction", "method": "as §1, §2, §3"}, "[5]": {"system": "Sarcocystis neurona", "assay": "Microtiter Monolayer Disruption Assay (MMDA), inhibition of BT cell destruction by S. neurona", "type": "cell-based", "conditions": "10 μg/mL, read-out: Percent Inhibition of Cell Destruction", "method": "as §1, §2, §3"}, "[6]": {"assay": "Pharmacokinetics of a single oral dose of Toltrazuril in horses (blood levels)", "type": "in vivo", "conditions": "horses receiving single oral 10 mg/kg Toltrazuril", "method": "A pharmacokinetic study was conducted in horses comparing blood levels of Toltrazuril, Ponazuril and Toltrazuril Sulfoxide at various times post a single dose of Toltrazuril. All horses received a single dose of 10 mg/kg, which was administered orally as a suspension. Blood samples were drawn at the time of treatment (0) and at 0.25, 0.5, 1, 2, 4, 6, 12, 24, 48 and 72 hours post treatment. […] This was an indication that Ponazuril, alone, would produce acceptable blood levels that are envisioned to pass the blood-brain barrier, a characteristic required to treat neurological diseases such as those caused by Sarcocystis neurona, Toxoplasma gondii, Neospora caninum and Neospora heugesi."}, "[7]": {"assay": "Safety and effectiveness of a single high dose", "type": "in vivo", "conditions": "doses as high as 100 mg/Kg body weight", "method": "For the single high dose treatment the triazineone is administered in pharmaceutically effective amounts that are greater than 10 mg/Kg and up to about 100 mg/Kg. It is a distinct feature of the invention the compounds of this invention can be non-toxic, thus they can be administrated at high dose levels. The advantage of the high dose administration resides in the fact repeated doses are not required."}, "[8]": {"system": "Bovine turbinate (BT) cells", "type": "cell-based", "conditions": "uninfected agent treated BT cells", "method": "Bovine turbinate (BT) cells were used for all in vitro studies. Cells were grown to confluency in 25 cm^2 flasks in RMPI 1640 media supplemented with 10% v/v fetal bovine serum (FBS), 100 Units penicillin (G/mL), […] and 5×10^-2 mM 2-mercpatoethanol. After cell confluence was obtained, cells were maintained in the same media with reduced FBS (2% v/v). Cell cultures were incubated at 37° C. in a humidified atmosphere containing 5% carbon dioxide and 95% air.\nThe assay used to determine the effectiveness of Ponazuril was the Microtiter Monolayer Disruption Assay (MMDA). This assay was used to determine if the parasites or compound were toxic for BT cells. Flat bottomed 96-well microtiter plates were inoculated with BT cells and the resulting monolayers were used to determine the effects of Toltrazuril and Ponazuril on merozoite production as measured by CPE (plaque formation). […]"}, "[9]": {"system": "EPM-Infected Horses", "assay": "Response of EPM-infected horses to treatment (clinical score)", "type": "in vivo", "method": "The compound was formulated into a paste using Ponazuril as a 15% active ingredient (a.i.) as described in EXAMPLE 1. It was administered to horses already diagnosed with EPM once a day for 28 days at a dose rate between 2.5 mg/Kg and 10 mg/Kg.\nNaturally occurring clinical cases of EPM were well characterized by signalment and laboratory diagnosis. The diagnosis used for incorporation of EPM-positive horses into this trial was as follows: Confirmed asymmetrical neurological deficit as determined by a standardized neurological examination, to include radiography, indicative of EPM; Positive Western Blot for Sarcocystis neurona IgG; Red Blood Cell count below 500 cells/mL; CSF indices--Total Protein <90, IgG index >0.3. AQ quotient <2.2.\nAdditional requirements were that the horses were not suffering from diseases other than EPM. Therefore, they had to meet the following criteria: Negative CSF (<1:4) for EHV-1; Normal serum values for Vitamin E (.2.0 μg/mL); Lack of seizure disorders; Lack of behavior disorders.\nDiagnosed horses were randomly assigned to groups. Group 1 horses received the paste formulation daily at a dose rate of 5mg/Kg whereas Group 2 horses received the paste formulation daily at a dose rate of 10 mg/Kg. The treatment dose was based on body weight. The horses were evaluated for a period of 90 days (approximately 60 days after discontinuation of treatment) in order to determine that treatment was indeed effective. The response to treatment was scored using the following system: 1) 0=complete success-clinically normal with a negative CSF; 2) 1=Deficit just detected at a normal gait; 3) 2=Deficit easily detected and exaggerated by backing, turning, swaying, jaw loin pressure and neck extension; 4) 3=Deficit very prominent on walking, Facial turning, loin pressure or neck extension; 5) 4=Stumbling, tripping and falling down spontaneously; 6) 5=Recumbent, unable to rise. An improvement of one (1) unit in the score was considered a significant improvement."}, "[10]": {"conditions": "after treatment with Toltrazuril"}},
  "data": [
    {"smiles": "Cc1cc(-n2c(=O)[nH]c(=O)n(C)c2=O)ccc1Oc1ccc(S(=O)(=O)C(F)(F)F)cc1", "note": "[Ponazuril]", "values": [
      {"measurement": "inhibition at 1 µg/mL", "setting": "[1]", "result": 100, "unit": "%"},
      {"measurement": "inhibition at 1 µg/mL", "setting": "[2]", "result": 100, "unit": "%"},
      {"measurement": "Crossing of the blood-brain barrier", "setting": "[3]; after oral Toltrazuril daily for 10 days", "result": "effectively cross the blood-brain barrier"},
      {"measurement": "Concentration in cerebral spinal fluid relative to that of Toltrazuril", "setting": "[3]; [10]", "result": "essentially equivalent to the concentration of Toltrazuril itself"},
      {"measurement": "Crossing of the blood-brain barrier compared with Toltrazuril", "setting": "[3]; [10]", "result": "crosses this barrier more effectively than does Toltrazuril"},
      {"measurement": "inhibition at 1 µg/mL", "setting": "[4]", "result": 100, "unit": "%"},
      {"measurement": "inhibition at 10 µg/mL", "setting": "[5]", "result": 100, "unit": "%"},
      {"measurement": "Levels in serum / bloodstream (in words)", "setting": "[6]", "result": "relatively high levels"},
      {"measurement": "Safety and effectiveness", "setting": "[7]", "result": "both safe and effective"},
      {"measurement": "Toxicity to BT cells", "setting": "[8]", "result": "not toxic to the BT cells"},
      {"measurement": "Horses demonstrating acceptable improvement", "setting": "[9]; 5 mg/Kg dose, eight of nine horses", "result": 88.9, "unit": "%"},
      {"measurement": "TOTAL clinical score", "setting": "[9]; 5 mg/Kg group, Day 0 (baseline)", "result": 17},
      {"measurement": "TOTAL clinical score", "setting": "[9]; 5 mg/Kg group, Day 28", "result": 13},
      {"measurement": "TOTAL clinical score", "setting": "[9]; 5 mg/Kg group, Day 90", "result": 6},
      {"measurement": "Horses showing significant improvement in clinical score", "setting": "[9]; 10 mg/Kg group, 28 days, by day 90 post start of treatment", "result": 100, "unit": "%"},
      {"measurement": "TOTAL clinical score", "setting": "[9]; 10 mg/Kg group, Day 0 (baseline)", "result": 19},
      {"measurement": "TOTAL clinical score", "setting": "[9]; 10 mg/Kg group, Day 28", "result": 15},
      {"measurement": "TOTAL clinical score", "setting": "[9]; 10 mg/Kg group, Day 90", "result": 4},
      {"measurement": "Improvement in total scores, Group 1 (5 mg/Kg) versus Group 2 (10 mg/Kg)", "setting": "[9]; EPM horses, 5 vs 10 mg/Kg", "result": "approximately equivalent"},
      {"measurement": "Effectiveness for active treatment of EPM", "setting": "[9]; at either 5 mg/Kg or 10 mg/Kg, horses", "result": "effective for the active treatment of EPM in horses"}
    ]}
  ]
}
